Experimental data published in ChEMBL document CHEMBL1201861, “Genomics of Drug Sensitity in Cancer screening data, Wellcome Trust Sanger Institute”.

What was measured:
Experiment in all cases: cells
SW982 = format: functional, cell-based, Homo sapiens; conditions: Homo sapiens, SW982;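 note: growth inhibition of SW982 cells, read out with a cell viability assay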
Description: SANGER: Inhibition of human SW982 cell growth in a cell viability assay.

LS-123 = format: functional, cell-based, Homo sapiens; conditions: Homo sapiens, LS-123
Description: SANGER: Inhibition of human LS-123 cell growth in a cell viability assay.

MZ7-mel = format: functional, cell-based, Homo sapiens; conditions: Homo sapiens, MZ7-mel;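 note: growth inhibition of human MZ7-mel cells, measured by a cell viability assay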
Description: SANGER: Inhibition of human MZ7-mel cell growth in a cell viability assay.

ALL-PO = format: functional, cell-based, Homo sapiens; conditions: Homo sapiens, ALL-PO;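 note: growth inhibition of ALL-PO cells, read out by a cell viability assay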
Description: SANGER: Inhibition of human ALL-PO cell growth in a cell viability assay.

Calu-6 = format: functional, cell-based, Homo sapiens; conditions: Homo sapiens, Calu-6;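 note: growth of human Calu-6 cells, read out by a cell viability assay, IC50 marking inhibition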
Description: SANGER: Inhibition of human Calu-6 cell growth in a cell viability assay.

8-MG-BA = format: functional, cell-based, Homo sapiens; conditions: Homo sapiens, 8-MG-BA;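 note: growth inhibition of 8-MG-BA cells, read out with a cell viability assay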
Description: SANGER: Inhibition of human 8-MG-BA cell growth in a cell viability assay.

CGTH-W-1 = format: functional, cell-based, Homo sapiens; conditions: Homo sapiens, CGTH-W-1;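 note: growth inhibition of human CGTH-W-1 cells measured by cell viability assay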
Description: SANGER: Inhibition of human CGTH-W-1 cell growth in a cell viability assay.

JAR = format: functional, cell-based, Homo sapiens; conditions: Homo sapiens, JAR;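 note: growth inhibition of human JAR cells determined with a cell viability assay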
Description: SANGER: Inhibition of human JAR cell growth in a cell viability assay.

DB = format: functional, cell-based, Homo sapiens; conditions: Homo sapiens, DB
Description: SANGER: Inhibition of human DB cell growth in a cell viability assay.

TE-5 = format: functional, cell-based, Homo sapiens; conditions: Homo sapiens, TE-5;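 note: inhibition of cell growth, read out by a cell viability assay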
Description: SANGER: Inhibition of human TE-5 cell growth in a cell viability assay.

NB17 = format: functional, cell-based, Homo sapiens; conditions: Homo sapiens, NB17;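 note: growth inhibition of NB17 cells, read out with a cell viability assay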
Description: SANGER: Inhibition of human NB17 cell growth in a cell viability assay.

ML-2 = format: functional, cell-based, Homo sapiens; conditions: Homo sapiens, ML-2;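 note: growth inhibition of ML-2 cells, measured with a cell viability readout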
Description: SANGER: Inhibition of human ML-2 cell growth in a cell viability assay.

KNS-42 = format: functional, cell-based, Homo sapiens; conditions: Homo sapiens, KNS-42;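 note: growth inhibition of KNS-42 cells, read out with a cell viability assay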
Description: SANGER: Inhibition of human KNS-42 cell growth in a cell viability assay.

TE-12 = format: functional, cell-based, Homo sapiens; conditions: Homo sapiens, TE-12;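 note: growth inhibition of TE-12 cells, read out by a cell viability assay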
Description: SANGER: Inhibition of human TE-12 cell growth in a cell viability assay.

TE-8 = format: functional, cell-based, Homo sapiens; conditions: Homo sapiens, TE-8;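 note: growth inhibition of TE-8 cells, measured with a cell viability readout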
Description: SANGER: Inhibition of human TE-8 cell growth in a cell viability assay.

HCE-4 = format: functional, cell-based, Homo sapiens; conditions: Homo sapiens, HCE-4;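 note: cell viability assay measuring inhibition of growth in the human HCE-4 cell line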
Description: SANGER: Inhibition of human HCE-4 cell growth in a cell viability assay.

GAK = format: functional, cell-based, Homo sapiens; conditions: Homo sapiens, GAK;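 note: cell growth inhibition read out by a cell viability assay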
Description: SANGER: Inhibition of human GAK cell growth in a cell viability assay.

A253 cell line = format: functional, cell-based, Homo sapiens; conditions: Homo sapiens, A253;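 note: growth inhibition of A253 cells, read out with a cell viability assay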
Description: SANGER: Inhibition of human A253 cell growth in a cell viability assay.

HDLM-2 = format: functional, cell-based, Homo sapiens; conditions: Homo sapiens, HDLM-2;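 note: cell viability assay measuring suppression of HDLM-2 proliferation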
Description: SANGER: Inhibition of human HDLM-2 cell growth in a cell viability assay.

COLO-829 = format: functional, cell-based, Homo sapiens; conditions: Homo sapiens, COLO-829
Description: SANGER: Inhibition of human COLO-829 cell growth in a cell viability assay.

LAN-6 = format: functional, cell-based, Homo sapiens; conditions: Homo sapiens, LAN-6;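 note: growth inhibition of LAN-6 cells, determined with a cell viability assay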
Description: SANGER: Inhibition of human LAN-6 cell growth in a cell viability assay.

COLO-320-HSR = format: functional, cell-based, Homo sapiens; conditions: Homo sapiens, COLO-320-HSR;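 note: growth inhibition of COLO-320-HSR cells, determined with a cell viability assay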
Description: SANGER: Inhibition of human COLO-320-HSR cell growth in a cell viability assay.

COLO-668 = format: functional, cell-based, Homo sapiens; conditions: Homo sapiens, COLO-668
Description: SANGER: Inhibition of human COLO-668 cell growth in a cell viability assay.

LB771-HNC = format: functional, cell-based, Homo sapiens; conditions: Homo sapiens, LB771-HNC;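 note: growth inhibition of LB771-HNC human cells, read out with a cell viability assay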
Description: SANGER: Inhibition of human LB771-HNC cell growth in a cell viability assay.

no-11 = format: functional, cell-based, Homo sapiens; conditions: Homo sapiens;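 note: growth inhibition of human NO-11 cells, read out with a cell viability assay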
Description: SANGER: Inhibition of human no-11 cell growth in a cell viability assay.

TE-9 = format: functional, cell-based, Homo sapiens; conditions: Homo sapiens, TE-9;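 note: cell growth inhibition, measured with a cell viability readout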
Description: SANGER: Inhibition of human TE-9 cell growth in a cell viability assay.

KURAMOCHI = format: functional, cell-based, Homo sapiens; conditions: Homo sapiens, KURAMOCHI;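 note: growth inhibition of KURAMOCHI cells, read out with a cell viability assay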
Description: SANGER: Inhibition of human KURAMOCHI cell growth in a cell viability assay.

D283 Med = format: functional, cell-based, Homo sapiens; conditions: Homo sapiens, D283 Med
Description: SANGER: Inhibition of human D-283MED cell growth in a cell viability assay.

KM-H2 = format: functional, cell-based, Homo sapiens; conditions: Homo sapiens, KM-H2;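 note: growth inhibition of KM-H2 cells, read out by a cell viability assay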
Description: SANGER: Inhibition of human KM-H2 cell growth in a cell viability assay.

A388 = format: functional, cell-based, Homo sapiens; conditions: Homo sapiens, A388;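 note: growth inhibition of human A388 cells, read out with a cell viability assay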
Description: SANGER: Inhibition of human A388 cell growth in a cell viability assay.

NCI-H720 = format: functional, cell-based, Homo sapiens; conditions: Homo sapiens, NCI-H720;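 note: growth inhibition of human NCI-H720 cells determined by a cell viability assay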
Description: SANGER: Inhibition of human NCI-H720 cell growth in a cell viability assay.

ES8 = format: functional, cell-based, Homo sapiens; conditions: Homo sapiens, ES8;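 note: growth inhibition of human ES8 cells, read out with a cell viability assay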
Description: SANGER: Inhibition of human ES8 cell growth in a cell viability assay.

EW-1 = format: functional, cell-based, Homo sapiens; conditions: Homo sapiens, EW-1
Description: SANGER: Inhibition of human EW-1 cell growth in a cell viability assay.

HL-60 = format: functional, cell-based, Homo sapiens; conditions: Homo sapiens, HL-60;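 note: growth inhibition of human HL-60 cells, read out with a cell viability assay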
Description: SANGER: Inhibition of human HL-60 cell growth in a cell viability assay.

LOX IMVI = format: functional, cell-based, Homo sapiens; conditions: Homo sapiens, LOX IMVI
Description: SANGER: Inhibition of human LOXIMVI cell growth in a cell viability assay.

EW-11 = format: functional, cell-based, Homo sapiens; conditions: Homo sapiens, EW-11;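 note: growth inhibition of human EW-11 cells, measured with a cell viability assay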
Description: SANGER: Inhibition of human EW-11 cell growth in a cell viability assay.

EOL1 = format: functional, cell-based, Homo sapiens; conditions: Homo sapiens, EOL1;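 note: growth inhibition of EoL-1 cells, read out by a cell viability assay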
Description: SANGER: Inhibition of human EoL-1-cell cell growth in a cell viability assay.

EW-16 = format: functional, cell-based, Homo sapiens; conditions: Homo sapiens, EW-16;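 note: growth inhibition of human EW-16 cells, read out as cell viability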
Description: SANGER: Inhibition of human EW-16 cell growth in a cell viability assay.

COLO-684 = format: functional, cell-based, Homo sapiens; conditions: Homo sapiens, COLO-684
Description: SANGER: Inhibition of human COLO-684 cell growth in a cell viability assay.

SHP77 = format: functional, cell-based, Homo sapiens, SHP-77; conditions: Homo sapiens, SHP77;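 note: growth inhibition of human SHP-77 cells measured by a cell viability assay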
Description: SANGER: Inhibition of human SHP-77 cell growth in a cell viability assay.

COLO-800 = format: functional, cell-based, Homo sapiens; conditions: Homo sapiens, COLO-800;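 note: growth inhibition of COLO-800 cells, read out with a cell viability assay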
Description: SANGER: Inhibition of human COLO-800 cell growth in a cell viability assay.

BB30-HNC = format: functional, cell-based, Homo sapiens; conditions: Homo sapiens, BB30-HNC;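 note: growth inhibition of the cultured cell line, read out by a cell viability assay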
Description: SANGER: Inhibition of human BB30-HNC cell growth in a cell viability assay.

HH = format: functional, cell-based, Homo sapiens; conditions: Homo sapiens, HH
Description: SANGER: Inhibition of human HH cell growth in a cell viability assay.

BV-173 = format: functional, cell-based, Homo sapiens; conditions: Homo sapiens, BV-173
Description: SANGER: Inhibition of human BV-173 cell growth in a cell viability assay.

KS-1 = format: functional, cell-based, Homo sapiens; conditions: Homo sapiens, KS-1;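 note: growth inhibition of KS-1 cells, read out with a cell viability assay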
Description: SANGER: Inhibition of human KS-1 cell growth in a cell viability assay.

NCI-H1395 = format: functional, cell-based, Homo sapiens; conditions: Homo sapiens, NCI-H1395;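 note: cell viability assay read-out quantifying reduced proliferation of human NCI-H1395 cells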
Description: SANGER: Inhibition of human NCI-H1395 cell growth in a cell viability assay.

D-392MG = format: functional, cell-based, Homo sapiens; conditions: Homo sapiens, D-392MG
HCC 2998 = format: functional, cell-based, Homo sapiens; conditions: Homo sapiens, HCC 2998;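 note: growth inhibition of human HCC2998 cells, measured with a cell viability read-out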
Description: SANGER: Inhibition of human HCC2998 cell growth in a cell viability assay.

`CC(=O)O[C@H]1C(=O)[C@@]2(C)[C@H]([C@H](OC(=O)c3ccccc3)[C@]3(O)C[C@H](OC(=O)[C@H](O)[C@@H](NC(=O)c4ccccc4)c4ccccc4)C(C)=C1C3(C)C)[C@]1(OC(C)=O)CO[C@@H]1C[C@@H]2O` [PACLITAXEL] was tested, and the IC50 (SW982) was 7.66 nM, the IC50 (LS-123) was 16.6 nM and the IC50 (MZ7-mel) was 0.0404 µM. The IC50 (ALL-PO) was 6.3 nM, the IC50 (Calu-6) was 10.1 nM and the IC50 (8-MG-BA) was 7.96 nM. For the same compound, the IC50 (CGTH-W-1) was 54.5 nM, the IC50 (JAR) was 29.5 nM and the IC50 (DB) was > 0.102 µM. It also gave an IC50 (TE-5) of 15 nM, an IC50 (NB17) of 0.0498 µM and an IC50 (ML-2) of 20.5 nM. For the same compound, the IC50 (KNS-42) was 8.91 nM, the IC50 (TE-12) was 33.1 nM and the IC50 (TE-8) was 1.17 nM. It also gave an IC50 (HCE-4) of 7.67 nM, an IC50 (GAK) of 102 nM and an IC50 (A253 cell line) of 0.0174 µM. For the same compound, the IC50 (HDLM-2) was 43.9 nM, the IC50 (COLO-829) was > 0.102 µM and the IC50 (LAN-6) was > 0.102 µM. For the same compound, the IC50 (COLO-320-HSR) was > 102 nM, the IC50 (COLO-668) was > 0.102 µM and the IC50 (LB771-HNC) was 25.3 nM. It also gave an IC50 (no-11) of 0.0348 µM, an IC50 (TE-9) of 3.26 nM and an IC50 (KURAMOCHI) of 7.48 nM. For the same compound, the IC50 (D283 Med) was > 0.102 µM, the IC50 (KM-H2) was 33.1 nM and the IC50 (A388) was 8.74 nM. For the same compound, the IC50 (NCI-H720) was > 0.102 µM, the IC50 (ES8) was 5.38 nM and the IC50 (EW-1) was 3.71 nM. The IC50 (HL-60) was 9.66 nM, the IC50 (LOX IMVI) was 70.3 nM and the IC50 (EW-11) was > 0.102 µM. For the same compound, the IC50 (EOL1) was 26.9 nM, the IC50 (EW-16) was 6.94 nM and the IC50 (COLO-684) was 29.1 nM. The IC50 (SHP77) was > 0.102 µM, the IC50 (COLO-800) was > 0.102 µM and the IC50 (BB30-HNC) was 3.14 nM. It also gave an IC50 (HH) of 0.0716 µM, an IC50 (BV-173) of 25.5 nM and an IC50 (KS-1) of 5.82 nM. The IC50 (NCI-H1395) was > 0.102 µM.
With `N[C@@H](CSC(c1ccccc1)(c1ccccc1)c1ccccc1)C(=O)O` [S-TRITYL-L-CYSTEINE] the IC50 (SW982) was 1070 nM, the IC50 (LS-123) was > 5120 nM and the IC50 (MZ7-mel) was 3.18 µM. The IC50 (ALL-PO) was 2250 nM, the IC50 (Calu-6) was 427 nM and the IC50 (8-MG-BA) was > 5120 nM. The IC50 (CGTH-W-1) was > 5120 nM, the IC50 (JAR) was 941 nM and the IC50 (DB) was > 5.12 µM. The IC50 (TE-5) was > 5120 nM, the IC50 (NB17) was 3.07 µM and the IC50 (ML-2) was 2090 nM. The IC50 (KNS-42) was 2580 nM, the IC50 (TE-12) was > 5120 nM and the IC50 (TE-8) was 722 nM. For the same compound, the IC50 (HCE-4) was 469 nM, the IC50 (GAK) was > 5120 nM and the IC50 (A253 cell line) was 3.71 µM. For the same compound, the IC50 (HDLM-2) was 1500 nM, the IC50 (COLO-829) was > 5.12 µM and the IC50 (LAN-6) was 3.69 µM. For the same compound, the IC50 (COLO-320-HSR) was 894 nM, the IC50 (COLO-668) was > 5.12 µM and the IC50 (LB771-HNC) was 1950 nM. The IC50 (no-11) was 4.93 µM, the IC50 (TE-9) was 915 nM and the IC50 (KURAMOCHI) was > 5120 nM. For the same compound, the IC50 (D283 Med) was > 5.12 µM, the IC50 (KM-H2) was 2900 nM and the IC50 (A388) was 620 nM. For the same compound, the IC50 (NCI-H720) was > 5.12 µM, the IC50 (ES8) was 432 nM and the IC50 (EW-1) was 1510 nM. For the same compound, the IC50 (HL-60) was > 5120 nM, the IC50 (LOX IMVI) was > 5120 nM and the IC50 (EW-11) was > 5.12 µM. The IC50 (EOL1) was 1190 nM, the IC50 (EW-16) was 1620 nM and the IC50 (COLO-684) was 2080 nM. For the same compound, the IC50 (SHP77) was > 5.12 µM, the IC50 (COLO-800) was > 5.12 µM and the IC50 (BB30-HNC) was 1190 nM. For the same compound, the IC50 (HH) was 3.51 µM, the IC50 (BV-173) was 990 nM and the IC50 (KS-1) was 842 nM. For the same compound, the IC50 (NCI-H1395) was > 5.12 µM.
`CC[C@H](CO)Nc1nc(NCc2ccccc2)c2ncn(C(C)C)c2n1` [SELICICLIB] was tested, and the IC50 (LS-123) was > 16000 nM, the IC50 (MZ7-mel) was > 16 µM and the IC50 (ALL-PO) was > 16000 nM. The IC50 (Calu-6) was > 16000 nM, the IC50 (8-MG-BA) was > 16000 nM and the IC50 (CGTH-W-1) was > 16000 nM. For the same compound, the IC50 (JAR) was > 16000 nM, the IC50 (DB) was > 16 µM and the IC50 (TE-5) was > 16000 nM. The IC50 (NB17) was > 16 µM, the IC50 (D-392MG) was > 16 µM and the IC50 (ML-2) was > 16000 nM. The IC50 (KNS-42) was > 16000 nM, the IC50 (HCC 2998) was > 16 µM and the IC50 (TE-12) was > 16000 nM. For the same compound, the IC50 (TE-8) was > 16000 nM, the IC50 (A253 cell line) was > 16 µM and the IC50 (HDLM-2) was > 16000 nM. For the same compound, the IC50 (COLO-829) was > 16 µM, the IC50 (LAN-6) was > 16 µM and the IC50 (COLO-320-HSR) was > 16000 nM. For the same compound, the IC50 (COLO-668) was > 16 µM, the IC50 (LB771-HNC) was > 16000 nM and the IC50 (no-11) was > 16 µM. The IC50 (TE-9) was > 16000 nM, the IC50 (D283 Med) was > 16 µM and the IC50 (KM-H2) was > 16000 nM. For the same compound, the IC50 (A388) was > 16000 nM, the IC50 (NCI-H720) was > 16 µM and the IC50 (ES8) was > 16000 nM. The IC50 (EW-1) was > 16000 nM, the IC50 (HL-60) was > 16000 nM and the IC50 (LOX IMVI) was > 16000 nM. For the same compound, the IC50 (EW-11) was > 16 µM, the IC50 (EOL1) was > 16000 nM and the IC50 (EW-16) was > 16000 nM. The IC50 (COLO-684) was > 16000 nM, the IC50 (SHP77) was > 16 µM and the IC50 (COLO-800) was > 16 µM. The IC50 (BB30-HNC) was > 16000 nM, the IC50 (HH) was > 16 µM and the IC50 (BV-173) was > 16000 nM. For the same compound, the IC50 (KS-1) was 9460 nM and the IC50 (NCI-H1395) was > 16 µM.
